Common to all, as to experiment: Drug sensitivity of clinical isolated strain
Test [1] has as its system KP-1: Klebsiella pneumonia subsp. pneumonia 13#. Format: cell-based. The note with it: KP-1 (Table 3).
Test [2] has as its system KP-2: K. pneumonia subsp. pneumonia 0322#. Format: cell-based, Klebsiella pneumonia.
A further test deals with ECO-3: E. coli ZY-1. Type of test: cell-based, Escherichia coli.
In a further test the test system is AB-2: A. baumannii 0361#. Type of test: cell-based, Acinetobacter baumannii. The note with it: AB-2 (Table 3).
The test system of test [3] is PA-1: Pseudomonas aeruginose 1298#. Type of test: cell-based, Pseudomonas aeruginosa.
Test [4] has as its system PA-2: P. aeruginose 0009#. Type of test: cell-based, Pseudomonas aeruginosa. The settings on record: PA-2 (Table 3).
Test [5] has as its system ECO-1: Escherichia coli 1139#. Format: cell-based.
Test [6] deals with AB-1: Acinetobacter baumannii H#. Type of test: cell-based.
The subject of another test is ECO-2: E. coli 2219#. Format: cell-based, Escherichia coli. The note with it: ECO-2 (Table 3).
The test system of another test is ECL-2: E. cloacae 2301#. Type of test: cell-based, Enterobacter cloacae.
Test [7] relates to ECL-1: Enterobacter cloacae 0431#. Type of test: cell-based. The note with it: ECL-1 (Table 3).
Further: key: R: resistant; S: sensitive.

Turning to `Cc1nnc(SCC2=C(C(=O)O)N3C(=O)[C@@H](NC(=O)Cn4cnnn4)[C@H]3SC2)s1` [Cefazolin], the Drug sensitivity entry was “R” in [1]; “R” in test [2] (KP-2 (Table 3)); “R” in test [2] (KP-2 (table of Example 3)); “S” in the test on ECO-3: E. coli ZY-1 (E. coli ZY-1 (Table 7)); “S” in the test with ECO-3: E. coli ZY-1 (ECO-3 (Table 3)); “R” with AB-2: A. baumannii 0361#. Further, the Drug sensitivity result in test [3] (PA-1 (Table 3)), in test [3] (PA-1 (table of Example 3)), in test [4], in test [5] (ECO-1 (Table 3)), in [5] (ECO-1 (table of Example 3)) and in test [6] (AB-1 (Table 3)) was “R” each time. Also, the Drug sensitivity entry (in [6] (AB-1 (table of Example 3)); in the test with ECO-2: E. coli 2219#) was “R” each time.

For `C[C@@H](O)[C@H]1C(=O)N2C(C(=O)O)=C(SCCN=CN)C[C@H]12` [Imipenem], the Drug sensitivity result in test [1] is on record as “R”; in [2] (KP-2 (Table 3)) it was “S”; in test [2] (KP-2 (table of Example 3)), “S”; with ECO-3: E. coli ZY-1 (E. coli ZY-1 (Table 7)), “S”; in the test on ECO-3: E. coli ZY-1 (ECO-3 (Table 3)), “S”; with AB-2: A. baumannii 0361# it was “R”. Further, the Drug sensitivity entry is given as “S” in [3] (PA-1 (Table 3)); “S” in [3] (PA-1 (table of Example 3)); “S” in [5] (ECO-1 (Table 3)); “S” in [5] (ECO-1 (table of Example 3)); “R” in the test with ECL-2: E. cloacae 2301# (ECL-2 (Table 3)); “R” with ECL-2: E. cloacae 2301# (ECL-2 (table of Example 3)). Moreover, the Drug sensitivity result is recorded as “R” in test [6] (AB-1 (Table 3)), “R” in test [6] (AB-1 (table of Example 3)), “S” in [7] and “S” in the test with ECO-2: E. coli 2219#.

Regarding `C[C@H]1[C@H](NC(=O)/C(=N\OC(C)(C)C(=O)O)c2csc(N)n2)C(=O)N1S(=O)(=O)O` [Aztreonam], the Drug sensitivity result is on record as “S” in the test on ECO-3: E. coli ZY-1 (E. coli ZY-1 (Table 7)); “S” in the test with ECO-3: E. coli ZY-1 (ECO-3 (Table 3)); “R” in the test with AB-2: A. baumannii 0361#; “R” in [3] (PA-1 (Table 3)); “R” in [3] (PA-1 (table of Example 3)); “R” in test [4]. Further, the Drug sensitivity entry (in test [5] (ECO-1 (Table 3)); in test [5] (ECO-1 (table of Example 3)); in the test with ECL-2: E. cloacae 2301# (ECL-2 (Table 3)); in the test on ECL-2: E. cloacae 2301# (ECL-2 (table of Example 3)); in test [6] (AB-1 (Table 3)); in test [6] (AB-1 (table of Example 3))) was “R” each time. Besides, the Drug sensitivity entry (in test [7]; in the test on ECO-2: E. coli 2219#) was “R” throughout.

As to `C[C@]1(Cn2ccnn2)[C@H](C(=O)O)N2C(=O)C[C@H]2S1(=O)=O` [Tazobactam], the Drug sensitivity entry is on record as “R” in [1]; “R” in test [2] (KP-2 (Table 3)); “R” in [2] (KP-2 (table of Example 3)); “S” in the test on ECO-3: E. coli ZY-1 (E. coli ZY-1 (Table 7)); “S” in the test on ECO-3: E. coli ZY-1 (ECO-3 (Table 3)); “R” in the test with AB-2: A. baumannii 0361#. Moreover, the Drug sensitivity result in test [3] (PA-1 (Table 3)) is given as “R/S”; in test [3] (PA-1 (table of Example 3)), “R/S”; in test [4], “R”; in [5] (ECO-1 (Table 3)) it was “S”; in test [5] (ECO-1 (table of Example 3)), “S”; with ECL-2: E. cloacae 2301# (ECL-2 (Table 3)), “R”. For the same molecule, the Drug sensitivity entry in the test with ECL-2: E. cloacae 2301# (ECL-2 (table of Example 3)) is “R”; in test [6] (AB-1 (Table 3)) it was “R”; in test [6] (AB-1 (table of Example 3)), “R”; in test [7], “S”; with ECO-2: E. coli 2219#, “R/S”.

On to `CO/N=C(\C(=O)N[C@@H]1C(=O)N2C(C(=O)[O-])=C(C[N+]3(C)CCCC3)CS[C@H]12)c1csc(N)n1` [Cefepime], for which the Drug sensitivity result in [1] was “R”; in [2] (KP-2 (Table 3)), “R”; in test [2] (KP-2 (table of Example 3)) it was “R”; in the test with ECO-3: E. coli ZY-1 (E. coli ZY-1 (Table 7)) it was “S”; in the test on ECO-3: E. coli ZY-1 (ECO-3 (Table 3)), “S”; in the test on AB-2: A. baumannii 0361#, “R”. Also, the Drug sensitivity entry (in [3] (PA-1 (Table 3)); in [3] (PA-1 (table of Example 3)); in test [4]; in test [5] (ECO-1 (Table 3)); in test [5] (ECO-1 (table of Example 3)); with ECL-2: E. cloacae 2301# (ECL-2 (Table 3))) was “R” in each case. Besides, the Drug sensitivity entry (in the test on ECL-2: E. cloacae 2301# (ECL-2 (table of Example 3)); in [6] (AB-1 (Table 3)); in [6] (AB-1 (table of Example 3)); in [7]; in the test on ECO-2: E. coli 2219#) was “R” throughout.

Polymyxin: the Drug sensitivity entry (in the test with AB-2: A. baumannii 0361#; in test [3] (PA-1 (Table 3)); in test [3] (PA-1 (table of Example 3)); in test [4]; in the test on ECL-2: E. cloacae 2301# (ECL-2 (Table 3)); in the test with ECL-2: E. cloacae 2301# (ECL-2 (table of Example 3))) was “S” in each case. Also, the values for the Drug sensitivity result in [6] (AB-1 (Table 3)), in [6] (AB-1 (table of Example 3)) and in [7] were “S”, “S” and “R”, respectively.

For the molecule `CO/N=C(\C(=O)N[C@@H]1C(=O)N2C(C(=O)O)=C(COC(C)=O)CS[C@H]12)c1csc(N)n1` [Cefotaxime], the Drug sensitivity entry is reported as “R” in test [1]; “R” in test [2] (KP-2 (Table 3)); “R” in test [2] (KP-2 (table of Example 3)); “S” in the test on ECO-3: E. coli ZY-1 (E. coli ZY-1 (Table 7)); “S” in the test on ECO-3: E. coli ZY-1 (ECO-3 (Table 3)); “R” in the test on AB-2: A. baumannii 0361#. In addition, the Drug sensitivity entry (in test [3] (PA-1 (Table 3)); in [3] (PA-1 (table of Example 3)); in test [4]; in [5] (ECO-1 (Table 3)); in [5] (ECO-1 (table of Example 3)); in the test on ECL-2: E. cloacae 2301# (ECL-2 (Table 3))) was “R” each time. Also, the Drug sensitivity result (in the test with ECL-2: E. cloacae 2301# (ECL-2 (table of Example 3)); in test [6] (AB-1 (Table 3)); in [6] (AB-1 (table of Example 3)); in test [7]; in the test with ECO-2: E. coli 2219#) was “R” throughout.

Consider `Nc1ccc(S(N)(=O)=O)cc1` [Sulfanilamide], for which the Drug sensitivity entry is given as “R” in the test with ECO-3: E. coli ZY-1 (E. coli ZY-1 (Table 7)); “R” in the test with ECO-3: E. coli ZY-1 (ECO-3 (Table 3)); “S” in the test with AB-2: A. baumannii 0361#; “R” in [3] (PA-1 (Table 3)); “R” in [3] (PA-1 (table of Example 3)); “R” in test [4]. Further, the Drug sensitivity result (in [5] (ECO-1 (Table 3)); in [5] (ECO-1 (table of Example 3)); with ECL-2: E. cloacae 2301# (ECL-2 (Table 3)); with ECL-2: E. cloacae 2301# (ECL-2 (table of Example 3)); in [7]; in the test with ECO-2: E. coli 2219#) was “R” each time.

For `CC1(C)[C@H](C(=O)O)N2C(=O)C[C@H]2S1(=O)=O` [Sulbactam], the Drug sensitivity entry in [1] was “R”; in test [2] (KP-2 (Table 3)), “R”; in test [2] (KP-2 (table of Example 3)), “R”; with ECO-3: E. coli ZY-1 (E. coli ZY-1 (Table 7)) it was “S”; in the test with ECO-3: E. coli ZY-1 (ECO-3 (Table 3)) it was “S”; in test [5] (ECO-1 (Table 3)) it was “R/S”. For the same molecule, the Drug sensitivity entry is reported as “R/S” in test [5] (ECO-1 (table of Example 3)), “R” in test [6] (AB-1 (Table 3)), “R” in [6] (AB-1 (table of Example 3)) and “R” with ECO-2: E. coli 2219#.

On to `CC1(C)S[C@@H]2[C@H](NC(=O)[C@H](N)c3ccccc3)C(=O)N2[C@H]1C(=O)O` [Ampicillin], for which the Drug sensitivity result is recorded as “R” in test [1]; “R” in test [2] (KP-2 (Table 3)); “R” in test [2] (KP-2 (table of Example 3)); “S” in the test on ECO-3: E. coli ZY-1 (E. coli ZY-1 (Table 7)); “S” in the test on ECO-3: E. coli ZY-1 (ECO-3 (Table 3)); “R” with AB-2: A. baumannii 0361#. The Drug sensitivity result in [3] (PA-1 (Table 3)) is “R/S”; in test [3] (PA-1 (table of Example 3)) it was “R/S”; in test [4], “R”; in [5] (ECO-1 (Table 3)), “S”; in test [5] (ECO-1 (table of Example 3)), “S”; in test [6] (AB-1 (Table 3)) it was “R”. Further, the Drug sensitivity entry (in [6] (AB-1 (table of Example 3)); in the test on ECO-2: E. coli 2219#) was “R” in each case.

For the molecule `CCN1CCN(C(=O)N[C@@H](C(=O)N[C@@H]2C(=O)N3[C@@H]2SC(C)(C)[C@@H]3C(=O)O)c2ccccc2)C(=O)C1=O` [Piperacillin], the Drug sensitivity entry in [1] is given as “R”; in test [2] (KP-2 (Table 3)), “R”; in test [2] (KP-2 (table of Example 3)) it was “R”; in the test with ECO-3: E. coli ZY-1 (E. coli ZY-1 (Table 7)) it was “S”; in the test with ECO-3: E. coli ZY-1 (ECO-3 (Table 3)) it was “S”; in the test on AB-2: A. baumannii 0361# it was “R”. Moreover, the Drug sensitivity result is listed as “R/S” in [3] (PA-1 (Table 3)); “R/S” in test [3] (PA-1 (table of Example 3)); “R” in test [4]; “R” in test [5] (ECO-1 (Table 3)); “R” in [5] (ECO-1 (table of Example 3)); “R” in the test with ECL-2: E. cloacae 2301# (ECL-2 (Table 3)). In addition, the Drug sensitivity result (with ECL-2: E. cloacae 2301# (ECL-2 (table of Example 3)); in test [6] (AB-1 (Table 3)); in [6] (AB-1 (table of Example 3)); in test [7]; in the test with ECO-2: E. coli 2219#) was “R” each time.

On to `O=C(N[C@H](CO)[C@H](O)c1ccc([N+](=O)[O-])cc1)C(Cl)Cl` [Chloramphenicol], for which the Drug sensitivity result in test [1] is on record as “R”; in test [2] (KP-2 (Table 3)) it was “R”; in test [2] (KP-2 (table of Example 3)), “R”; in the test with ECO-3: E. coli ZY-1 (E. coli ZY-1 (Table 7)) it was “S”; in the test with ECO-3: E. coli ZY-1 (ECO-3 (Table 3)), “S”; in the test on AB-2: A. baumannii 0361# it was “R”. Besides, the Drug sensitivity result was “R” in test [4]; “S” in test [5] (ECO-1 (Table 3)); “S” in test [5] (ECO-1 (table of Example 3)); “R” with ECL-2: E. cloacae 2301# (ECL-2 (Table 3)); “R” with ECL-2: E. cloacae 2301# (ECL-2 (table of Example 3)); “R” in test [6] (AB-1 (Table 3)). Further, the Drug sensitivity entry in [6] (AB-1 (table of Example 3)) is “R”; in test [7], “R”; in the test with ECO-2: E. coli 2219#, “S”.

For the origin of these results see patent publication US10653717B2, “Antibiotic compositions” (priority 2016, dated 2020).
